Molecular target: T1, PPARγ (Homo sapiens, UniProt P37231)
T1 sequence (P37231 1-505): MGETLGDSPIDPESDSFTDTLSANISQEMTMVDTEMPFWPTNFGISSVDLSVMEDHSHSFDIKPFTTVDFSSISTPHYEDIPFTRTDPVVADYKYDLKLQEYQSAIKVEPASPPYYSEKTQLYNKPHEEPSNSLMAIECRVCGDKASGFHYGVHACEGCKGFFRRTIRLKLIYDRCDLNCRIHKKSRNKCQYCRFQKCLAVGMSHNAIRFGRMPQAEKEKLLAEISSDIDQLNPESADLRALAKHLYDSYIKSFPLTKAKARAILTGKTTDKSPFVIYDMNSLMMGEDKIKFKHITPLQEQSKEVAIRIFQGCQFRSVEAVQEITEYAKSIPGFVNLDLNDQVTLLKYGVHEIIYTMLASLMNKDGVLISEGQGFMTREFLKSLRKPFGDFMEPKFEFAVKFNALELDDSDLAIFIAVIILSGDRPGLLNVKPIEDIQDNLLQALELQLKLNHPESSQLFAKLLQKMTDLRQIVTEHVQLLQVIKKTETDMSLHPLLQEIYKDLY
Test: PPARγ enrichment from MCF7 lysates spiked with recombinant PPARγ (LC-MS/MS LFQ)
Type: binding
Conditions: for LFQ intensity (PPARG enriched by probe): MCF7 lysates spiked with recombinant PPARγ (30 nM), n=3
Procedure: On the basis of the reported interaction between deoxyelephantopin and PPARγ and because MCF7 cells are known to express very low levels of this protein, we investigated in a separate experiment whether deoxyelephantopin indeed covalently binds PPARγ. The recombinant transcription factor was spiked into MCF7 lysates to 30 nM final concentration and successfully enriched by the methacrylate ester probe 24c, as evidenced from LC–MS/MS-based label-free quantification (LFQ)[48]. […] To investigate whether DEP is also capable of binding to endogenous PPARγ directly in living cells, we performed a targeted competitive proteomics experiment in Caco-2, a colon cancer cell line known to express larger amounts of PPARγ[49]. The cells were treated in situ with dimethyl sulfoxide (DMSO) or 20 μM deoxyelephantopin, lysed and treated with 24c. Gratifyingly, endogenous PPARγ was successfully enriched and quantified from the DMSO-treated Caco-2 cells, whereas DEP pretreatment efficiently competed PPARγ enrichment (>95%; Fig. 7a). In yet another control experiment, we expressed hPPARγ in HeLa cells and successfully conducted a gel-based competition experiment once again using DEP as an in situ competitor and 24c-Cy3 as reporter probe (Supplementary Fig. 14).
Supplementary figure 13: LFQ quantification of PPARγ enrichment from supplemented MCF7 lysates using 10 µM of 23c or 24c as enrichment probes (n = 3). […]
was processed with MaxQuant (see below).
In situ global proteomics profiling using LC-MS/MS. Caco- ’ cells/mL) in a 6-well plate, allowed to grow to confluence and to differentiate for 28 days. The wells were washed one time with PBS and treated with either DMSO, 10 µM rosiglitazone, 50 µM T0070907 or 20 µM DEP for 24 hours. Cells were washed two times with PBS and lysates were prepared. Samples (30 µg) were denatured with 6 M urea in 50 mM NH4HCO3, reduced […]
dark. Samples were diluted to 2 M urea with 50 mM NH4HCO3, and digested with trypsin ([…] for 12 hours at 37 °C. Samples were acidified to a final concentration of 5% acetic acid, desalted over a self-packed C18 spin column and dried. Samples were analyzed by LC-MS/MS (see below) and the MS data was processed with […]
ARγ nrichment for mass spectrometry. MCF7 lysate (2 mg/ml, 0.5 mL) supplemented µ γ was treated with either 23c or 24c (10 µM, 50x stock in DMSO) for one hour at r.t., followed by click chemistry (see above). […] Samples were analyzed by LC-MS/MS (see below) and the MS data was processed with MaxQuant (see below).
LC-MS/MS analysis. Peptides were resuspended in water with 0.1% formic acid (FA) and analyzed using Proxeon EASY-nLC 1000 nano-UHPLC coupled to QExactive Plus Quadrupole-Orbitrap mass spectrometer (Thermo Scientific). […]

| Compound | PPARγ enrichment compared with probe 24c (MCF7 lysates spiked with PPARγ, 10 µM probe) | LFQ intensity (PPARG enriched by probe) (10 µM probe) | Ratio 24c/23c (LFQ intensity of PPARG) (MCF7 lysates spiked with PPARγ, 10 µM probes) |
| --- | --- | --- | --- |
| C#CCC[C@H](O)[C@H]1C(=C)C(=O)O[C@@H]1c1ccccc1 [23c] | comparable LFQ value | 5.49E+09 |  |
| C#CCC[C@H](OC(=O)C(=C)C)[C@H]1C(=C)C(=O)O[C@@H]1c1ccccc1 [24c] |  | 5.15E+09 | 0.94 |

Reference: publication PMC4992173, “Divergent synthesis and identification of the cellular targets of deoxyelephantopins” (Nature Communications, 2016)
